Reference: patent US11447493B2 (Kinnate Biopharma Inc., priority 2018, dated 2022)

How the values were obtained:
Assay in all cases: Radiometric protein kinase assay (33PanQinase), Assay Condition A (thiol containing)
Type in all cases: biochemical
CDK12 wt/CycK = CDK12 wt/CycK (Homo sapiens (Human), UniProt Q9NYV4); conditions: thiol containing (1.2 mM DTT), ATP 0.3 μM
Experimental: (§1) The IC50 profile of test compounds was determined using three protein kinases.
(§2) The compounds were provided as pre-weighed powders in vials. The compounds were dissolved to 1×10^−02M by adding DMSO. 100 μl of each of the resulting stock solutions were transferred into column 2 of four 96 well “master plates”.
(§3) Prior to testing, the 1×10^−02M stock solutions in column 2 of the master plates were subjected to a serial, semi-logarithmic dilution using 100% DMSO as a solvent. […] Column 1 and 7 were filled with 100% DMSO as controls. Subsequently, 2×10 μl from each well of the serial diluted copy plates were aliquoted with a 96 channel pipettor into two identical sets of “compound dilution plates”.
(§4) In the process, 90 μl H2O were added to each well of a set of compound dilution plates. To minimize potential precipitation, the H2O was added to each plate only a few minutes before the transfer of the compound solutions into the assay plates. Each plate was shaken thoroughly, resulting in a “compound dilution plate/10% DMSO”.
(§5) For the assays, 5 μl solution from each well of the compound dilution plates/10% DMSO were transferred into the assay plates. The final volume of the assay was 50 μl. All compounds were tested at 10 final assay concentrations in the range from 1×10^−04M to 3×10^−09M, in singlicate. The final DMSO concentration in the reaction cocktails was 1% in all cases.
(§6) All protein kinases were expressed in Sf9 insect cells or in E. coli as recombinant GST-fusion proteins or His-tagged proteins, either as full-length or enzymatically active fragments. All kinases were produced from human cDNAs and purified by either GSH-affinity chromatography or immobilized metal. Affinity tags were removed from a number of kinases during purification. The purity of the protein kinases was examined by SDS-PAGE/Coomassie staining, the identity was checked by mass spectroscopy.
(§7) A radiometric protein kinase assay (^33PanQinase® Activity Assay) was used for measuring the kinase activity of the three protein kinases. All kinase assays were performed in 96-well FlashPlates™ from PerkinElmer (Boston, Mass., USA) in a 50 μl reaction volume. The reaction cocktail was pipetted in four steps in the following order: • 20 μl of assay buffer (standard buffer) • 5 μl of ATP solution (in H2O) • 5 μl of test compound (in 10% DMSO) • 20 μl enzyme/substrate mix
(§8) The reaction cocktails were incubated at 30° C. for 60 minutes. The reaction was stopped with 50 μl of 2% (v/v) H3PO4, plates were aspirated and washed two times with 200 μl 0.9% (w/v) NaCl. Incorporation of ^33Pi was determined with a microplate scintillation counter (Microbeta, Wallac). All assays were performed with a BeckmanCoulter/SAGIAN™ Core System.
(§9) The median value of the counts in column 1 (n=8) of each assay plate was defined as “low control”. This value reflects unspecific binding of radioactivity to the plate in the absence of a protein kinase but in the presence of the substrate. The median value of the counts in column 7 of each assay plate (n=8) was taken as the “high control”, i.e. full activity in the absence of any inhibitor. The difference between high and low control was taken as 100% activity.
(§10) As part of the data evaluation the low control value from a particular plate was subtracted from the high control value as well as from all 80 “compound values” of the corresponding plate. The residual activity (in %) for each well of a particular plate was calculated by using the following formula: Res. Activity (%)=100×[(cpm of compound−low control)/(high control−low control)]
(§11) The residual activities for each concentration and the compound IC50 values were calculated using Quattro Workflow V3.1.1 (Quattro Research GmbH, Munich, Germany). […] The fitting method used was a least-squares fit.

CDK2/CycA2 = CDK2/CycA2 (Homo sapiens (Human), UniProt P24941); conditions: thiol containing (1.2 mM DTT), ATP 0.3 μM
Experimental: as §1, §2, §3, §4, §5, §6, §7, §8, §9, §10, §11

CDK7/CycH/MAT1 = CDK7/CycH/MAT1 (Homo sapiens (Human), UniProt P50613); conditions: thiol containing (1.2 mM DTT), ATP 3.0 μM
Experimental: as §1, §2, §3, §4, §5, §6, §7, §8, §9, §10, §11

Sequence of CDK12 wt/CycK (Q9NYV4 whole entry): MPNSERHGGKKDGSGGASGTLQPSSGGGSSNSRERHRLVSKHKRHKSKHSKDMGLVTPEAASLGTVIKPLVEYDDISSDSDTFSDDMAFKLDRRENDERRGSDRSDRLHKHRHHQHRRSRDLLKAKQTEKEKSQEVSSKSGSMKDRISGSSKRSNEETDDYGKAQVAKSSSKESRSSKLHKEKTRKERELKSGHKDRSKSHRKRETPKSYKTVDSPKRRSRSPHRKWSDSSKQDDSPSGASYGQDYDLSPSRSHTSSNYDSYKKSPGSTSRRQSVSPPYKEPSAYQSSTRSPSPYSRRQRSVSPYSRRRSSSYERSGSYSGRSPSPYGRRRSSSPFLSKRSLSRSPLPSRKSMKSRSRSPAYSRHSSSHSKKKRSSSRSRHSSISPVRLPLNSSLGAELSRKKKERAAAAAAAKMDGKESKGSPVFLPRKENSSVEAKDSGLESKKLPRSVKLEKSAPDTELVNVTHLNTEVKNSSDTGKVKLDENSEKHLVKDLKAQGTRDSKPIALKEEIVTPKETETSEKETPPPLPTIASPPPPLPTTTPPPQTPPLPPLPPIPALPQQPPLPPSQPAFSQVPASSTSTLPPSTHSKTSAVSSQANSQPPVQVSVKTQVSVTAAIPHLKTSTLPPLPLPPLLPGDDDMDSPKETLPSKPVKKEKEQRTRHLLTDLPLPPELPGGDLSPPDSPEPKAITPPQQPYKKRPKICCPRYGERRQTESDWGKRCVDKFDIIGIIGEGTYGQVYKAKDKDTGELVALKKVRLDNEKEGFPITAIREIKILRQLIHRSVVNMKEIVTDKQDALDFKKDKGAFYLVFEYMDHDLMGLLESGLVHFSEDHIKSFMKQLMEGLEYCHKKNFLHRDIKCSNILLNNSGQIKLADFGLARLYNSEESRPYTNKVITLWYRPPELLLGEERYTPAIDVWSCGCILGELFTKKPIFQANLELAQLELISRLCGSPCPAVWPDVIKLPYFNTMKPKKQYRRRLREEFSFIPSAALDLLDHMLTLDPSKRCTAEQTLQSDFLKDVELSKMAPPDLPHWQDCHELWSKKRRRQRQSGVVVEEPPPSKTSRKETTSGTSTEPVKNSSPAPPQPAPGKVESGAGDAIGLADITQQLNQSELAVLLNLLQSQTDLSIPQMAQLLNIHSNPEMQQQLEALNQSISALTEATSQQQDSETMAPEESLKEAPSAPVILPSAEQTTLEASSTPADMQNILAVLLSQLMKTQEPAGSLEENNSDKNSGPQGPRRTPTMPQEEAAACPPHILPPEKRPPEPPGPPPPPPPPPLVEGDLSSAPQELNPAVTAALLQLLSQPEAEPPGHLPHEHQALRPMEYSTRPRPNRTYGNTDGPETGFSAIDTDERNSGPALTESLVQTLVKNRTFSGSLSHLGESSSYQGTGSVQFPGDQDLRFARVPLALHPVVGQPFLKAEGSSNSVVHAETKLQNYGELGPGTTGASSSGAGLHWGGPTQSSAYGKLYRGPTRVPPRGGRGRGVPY
Sequence of CDK12 wt/CycK (O75909 whole entry partner): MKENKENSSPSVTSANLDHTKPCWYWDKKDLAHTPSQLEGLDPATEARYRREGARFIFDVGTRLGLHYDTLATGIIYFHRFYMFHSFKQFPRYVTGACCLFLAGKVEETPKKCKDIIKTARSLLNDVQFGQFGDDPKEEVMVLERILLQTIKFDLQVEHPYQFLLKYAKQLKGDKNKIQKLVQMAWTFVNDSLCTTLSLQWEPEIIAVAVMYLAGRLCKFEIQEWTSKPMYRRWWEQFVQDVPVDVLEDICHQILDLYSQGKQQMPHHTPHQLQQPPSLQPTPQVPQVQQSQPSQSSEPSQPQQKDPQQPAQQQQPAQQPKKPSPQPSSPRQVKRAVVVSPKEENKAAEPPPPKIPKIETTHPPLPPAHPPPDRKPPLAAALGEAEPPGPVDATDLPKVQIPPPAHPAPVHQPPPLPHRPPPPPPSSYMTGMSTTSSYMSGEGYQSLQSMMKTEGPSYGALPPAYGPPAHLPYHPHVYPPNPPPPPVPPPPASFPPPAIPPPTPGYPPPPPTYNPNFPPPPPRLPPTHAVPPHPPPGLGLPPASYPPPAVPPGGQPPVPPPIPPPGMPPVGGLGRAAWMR
Sequence of CDK7/CycH/MAT1 (P50613 whole entry): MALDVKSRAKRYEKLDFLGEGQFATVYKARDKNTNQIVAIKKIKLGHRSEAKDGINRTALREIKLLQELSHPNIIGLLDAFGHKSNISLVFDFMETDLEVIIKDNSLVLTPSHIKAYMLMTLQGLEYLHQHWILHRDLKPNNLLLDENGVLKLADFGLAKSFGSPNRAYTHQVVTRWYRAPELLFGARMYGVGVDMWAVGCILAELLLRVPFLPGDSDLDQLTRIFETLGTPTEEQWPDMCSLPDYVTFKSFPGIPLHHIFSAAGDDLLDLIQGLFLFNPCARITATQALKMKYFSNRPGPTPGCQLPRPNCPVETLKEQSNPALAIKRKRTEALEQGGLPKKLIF
Sequence of CDK7/CycH/MAT1 (P51946 whole entry partner): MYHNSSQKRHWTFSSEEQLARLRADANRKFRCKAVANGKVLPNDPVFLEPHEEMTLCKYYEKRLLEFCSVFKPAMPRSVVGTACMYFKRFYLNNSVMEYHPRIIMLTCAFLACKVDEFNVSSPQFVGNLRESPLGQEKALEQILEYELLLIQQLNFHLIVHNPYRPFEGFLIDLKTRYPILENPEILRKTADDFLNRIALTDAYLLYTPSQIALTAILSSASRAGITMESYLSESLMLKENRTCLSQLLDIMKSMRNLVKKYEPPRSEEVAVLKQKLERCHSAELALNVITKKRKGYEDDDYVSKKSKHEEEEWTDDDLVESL
Sequence of CDK7/CycH/MAT1 (P51948 whole entry partner): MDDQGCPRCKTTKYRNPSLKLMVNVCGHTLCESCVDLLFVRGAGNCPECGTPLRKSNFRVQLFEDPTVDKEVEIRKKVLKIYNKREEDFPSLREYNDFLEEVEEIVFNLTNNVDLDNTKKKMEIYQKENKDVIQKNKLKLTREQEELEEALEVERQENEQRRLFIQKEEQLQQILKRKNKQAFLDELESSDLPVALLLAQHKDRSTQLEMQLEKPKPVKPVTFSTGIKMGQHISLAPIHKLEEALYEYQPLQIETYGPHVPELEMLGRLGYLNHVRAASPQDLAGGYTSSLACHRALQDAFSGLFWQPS

IC50 (CDK12 wt/CycK) [µM] | IC50 (CDK2/CycA2) [µM] | IC50 (CDK7/CycH/MAT1) [µM] | SMILES
1 to 10 | 30 to 100 | 30 to 100 | C=CC(=O)Nc1ccc(C(=O)N2CCC[C@@H](Nc3cc4ccccc4cn3)C2)cc1 [Example 2, (R)-N-(4-(3-(isoquinolin-3-ylamino)piperidine-1-carbonyl)phenyl)acrylamide]
1 to 10 | 30 to 100 | 30 to 100 | C=CC(=O)Nc1ccc(C(=O)N2CCC[C@@H](Nc3ncc4cc(Cl)ccc4n3)C2)cc1 [Example 3, (R)-N-(4-(3-((6-chloroquinazolin-2-yl)amino)piperidine-1-carbonyl)phenyl)acrylamide]
1 to 10 | 30 to 100 | 30 to 100 | C=CC(=O)Nc1ccc(C(=O)N2CCC[C@@H](Nc3ncc4cc(F)ccc4n3)C2)cc1 [Example 4, (R)-N-(4-(3-((6-fluoroquinazolin-2-yl)amino)piperidine-1-carbonyl)phenyl)acrylamide]
1 to 10 | 30 to 100 | 30 to 100 | C=CC(=O)Nc1ccc(C(=O)N2CCC[C@@H](Nc3ncc4ccc(F)cc4n3)C2)cc1 [Example 5, (R)-N-(4-(3-((7-fluoroquinazolin-2-yl)amino)piperidine-1-carbonyl)phenyl)acrylamide]
10 to 30 | 30 to 100 | 30 to 100 | C=CC(=O)Nc1ccc(C(=O)N2CCC[C@@H](Nc3ncc4ccc(OC)cc4n3)C2)cc1 [Example 6, (R)-N-(4-(3-((7-methoxyquinazolin-2-yl)amino)piperidine-1-carbonyl)phenyl)acrylamide]
30 to 100 | 30 to 100 | 30 to 100 | C=CC(=O)Nc1ccc(C(=O)N2CCC[C@@H](Nc3ncc4cc(OC)ccc4n3)C2)cc1 [Example 7, (R)-N-(4-(3-((6-methoxyquinazolin-2-yl)amino)piperidine-1-carbonyl)phenyl)acrylamide]
10 to 30 | 30 to 100 | 30 to 100 | C=CC(=O)Nc1ccc(C(=O)N2CCC[C@@H](Nc3ncc4cc(C)ccc4n3)C2)cc1 [Example 8, (R)-N-(4-(3-((6-methylquinazolin-2-yl)amino)piperidine-1-carbonyl)phenyl)acrylamide]
10 to 30 | 30 to 100 | 30 to 100 | C=CC(=O)Nc1ccc(C(=O)N2CCC[C@@H](Nc3ncc4ccc(C)cc4n3)C2)cc1 [Example 9, (R)-N-(4-(3-((7-methylquinazolin-2-yl)amino)piperidine-1-carbonyl)phenyl)acrylamide]
1 to 10 | 30 to 100 | 30 to 100 | C=CC(=O)Nc1ccc(C(=O)N2CCC[C@@H](Nc3ncc4ccc(Cl)cc4n3)C2)cc1 [Example 10, (R)-N-(4-(3-((7-chloroquinazolin-2-yl)amino)piperidine-1-carbonyl)phenyl)acrylamide]
1 to 10 | 10 to 30 | 30 to 100 | C=CC(=O)Nc1ccc(C(=O)N2CCC[C@@H](Nc3ncc4ccc(S(C)(=O)=O)cc4n3)C2)cc1 [Example 11, (R)-N-(4-(3-((7-(methylsulfonyl)quinazolin-2-yl)amino)piperidine-1-carbonyl)phenyl)acrylamide]
0.1 to 1 | 1 to 10 | 10 to 30 | C=CC(=O)Nc1ccc(C(=O)N2CCC[C@@H](Nc3ncc4ccc(C(N)=O)cc4n3)C2)cc1 [Example 13, (R)-2-((1-(4-acrylamidobenzoyl)piperidin-3-yl)amino)quinazoline-7-carboxamide]
0.1 to 1 | 1 to 10 | 10 to 30 | C=CC(=O)Nc1ccc(C(=O)N2CCC[C@@H](Nc3ncc4ccc(C(=O)O)cc4n3)C2)cc1 [Example 14, (R)-2-((1-(4-acrylamidobenzoyl)piperidin-3-yl)amino)quinazoline-7-carboxylic acid]
10 to 30 | 30 to 100 | 30 to 100 | C=CC(=O)Nc1ccc(C(=O)N2CCC[C@@H](Nc3ncc4ccc(=O)[nH]c4n3)C2)cc1 [Example 16, (R)-N-(4-(3-((7-oxo-7,8-dihydropyrido[2,3-d]pyrimidin-2-yl)amino)piperidine-1-carbonyl)phenyl)acrylamide]
10 to 30 | 30 to 100 | 30 to 100 | CCC(=O)Nc1ccc(C(=O)N2CCC[C@@H](Nc3cc4ccccc4cn3)C2)cc1 [Example 18, (R)-N-(4-(3-(isoquinolin-3-ylamino)piperidine-1-carbonyl)phenyl)propionamide]
30 to 100 | 30 to 100 | 30 to 100 | CCC(=O)Nc1ccc(C(=O)N2CCC[C@@H](Nc3ncc4cc(Cl)ccc4n3)C2)cc1 [Example 19, (R)-N-(4-(3-((6-chloroquinazolin-2-yl)amino)piperidine-1-carbonyl)phenyl)propionamide]
 |  | 0.1 to 1 | C=CC(=O)Nc1ccc(C(=O)N2CC[C@@H](Nc3ncc4ccc(C(=O)NC)cc4n3)C2)cc1 [Example 58, (R)-2-((1-(4-acrylamidobenzoyl)pyrrolidin-3-yl)amino)-N-methylquinazoline-7-carboxamide]
≤ 0.1 |  |  | C=CC(=O)Nc1ccc(C(=O)N2CC[C@@H](Nc3ncc4ccccc4n3)C2)cc1OC [Example 71, (R)—N-(2-methoxy-4-(3-(quinazolin-2-ylamino)pyrrolidine-1-carbonyl)phenyl)acrylamide]
0.1 to 1 |  |  | C=CC(=O)Nc1ccc(C(=O)N2CC[C@@H](Nc3ncc4ccccc4n3)C2)c(OC)c1 [Example 73, (R)—N-(3-methoxy-4-(3-(quinazolin-2-ylamino)pyrrolidine-1-carbonyl)phenyl)acrylamide]
≤ 0.1 | 1 to 10 |  | C=CC(=O)N1CCCc2cc(C(=O)N3CC[C@@H](Nc4ncc5ccccc5n4)C3)ccc21 [Example 79, (R)-1-(6-(3-(quinazolin-2-ylamino)pyrrolidine-1-carbonyl)-3,4-dihydroquinolin-1(2H)-yl)prop-2-en-1-one]

SMILES | IC50 (CDK12 wt/CycK) [µM] | IC50 (CDK2/CycA2) [µM] | IC50 (CDK7/CycH/MAT1) [µM]
C=CC(=O)Nc1ccc(C(=O)N2CCC[C@@H](Nc3ncc4ccccc4n3)C2)cc1 [Example 1, (R)-N-(4-(3-(quinazolin-2-ylamino)piperidine-1-carbonyl)phenyl)acrylamide] | 1 to 10 |  | 
C=CC(=O)Nc1ccc(C(=O)N2CCC[C@@H](Nc3ncc4ccc(=O)n(C(C)C)c4n3)C2)cc1 [Example 15, (R)-N-(4-(3-((8-isopropyl-7-oxo-7,8-dihydropyrido[2,3-d]pyrimidin-2-yl)amino)piperidine-1-carbonyl)phenyl)acrylamide] | 1 to 10 | 10 to 30 | 30 to 100
CCC(=O)Nc1ccc(C(=O)N2CCC[C@@H](Nc3ncc4ccccc4n3)C2)cc1 [Example 17, (R)-N-(4-(3-(quinazolin-2-ylamino)piperidine-1-carbonyl)phenyl)propionamide] | 30 to 100 | 30 to 100 | 30 to 100
C=CC(=O)Nc1ccc(C(=O)N2CC[C@@H](Nc3ncc4ccccc4n3)C2)cn1 [Example 67, (R)—N-(5-(3-(quinazolin-2-ylamino)pyrrolidine-1-carbonyl)pyridin-2-yl)acrylamide] |  |  | 0.1 to 1
C=CC(=O)Nc1ccc(C(=O)N2CC[C@@H](Nc3ncc4cc(F)ccc4n3)C2)cc1F [Example 69, (R)—N-(2-fluoro-4-(3-((6-fluoroquinazolin-2-yl)amino)pyrrolidine-1-carbonyl)phenyl)acrylamide] | ≤ 0.1 | 1 to 10 | 
C#CC(=O)Nc1ccc(C(=O)N2CC[C@@H](Nc3ncc4ccccc4n3)C2)cc1 [Example 70, (R)—N-(4-(3-(quinazolin-2-ylamino)pyrrolidine-1-carbonyl)phenyl)propiolamide] | ≤ 0.1 | 0.1 to 1 | 
